Reference: the supplement of paper PMC10307832

How the values were obtained:
Metformin + Trametinib = compound: CN(C)C(=N)NC(=N)N [Metformin] + CC(=O)Nc1cccc(-n2c(=O)n(C3CC3)c(=O)c3c(Nc4ccc(I)cc4F)n(C)c(=O)c(C)c32)c1 [Trametinib] (partner 0.02 µM); experiment: relative viability (nuclei count vs DMSO), 5 days (fraction); higher = more cells survive
Outline: (§1)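 One day after seeding in 1536-well plates, lung cancer cell lines were dosed by pin tool. Dosing was either single-drug or a fixed anchor-drug dose plus five library-drug doses (not always all listed) in √10 steps. After 5 days, nuclei were stained in one fix-and-stain step and counted on 4× images, and relative viability is the nuclei count of treated wells over that of vehicle wells, given as the median of duplicate plates.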

Apatinib + Dasatinib = compound: N#CC1(c2ccc(NC(=O)c3cccnc3NCc3ccncc3)cc2)CCCC1 [Apatinib] + Cc1nc(Nc2ncc(C(=O)Nc3c(C)cccc3Cl)s2)cc(N2CCN(CCO)CC2)n1 [Dasatinib] (partner 0.075 µM); experiment: as above
Outline: as §1

Row | Cell Line | relative viability (Metformin + Trametinib; first compound 10 µM) | relative viability (Metformin + Trametinib; first compound 31.62 µM) | relative viability (Metformin + Trametinib; first compound 100 µM) | relative viability (Metformin + Trametinib; first compound 316.23 µM) | relative viability (Metformin + Trametinib; first compound 1000 µM) | relative viability (Apatinib + Dasatinib; first compound 0.08 µM) | relative viability (Apatinib + Dasatinib; first compound 0.253 µM) | relative viability (Apatinib + Dasatinib; first compound 0.8 µM) | relative viability (Apatinib + Dasatinib; first compound 2.53 µM) | relative viability (Apatinib + Dasatinib; first compound 8 µM)
1 | A-427 | 0.719 | 0.868 | 0.725 | 0.692 | 0.54 | 0.706 | 0.66 | 0.798 | 0.671 | 0.575
2 | NCI-H2342 | – | 0.773 | 0.9 | 0.823 | 0.801 | 0.267 | 0.295 | 0.307 | 0.28 | 0.283
3 | 201T | – | 0.679 | 0.735 | 0.684 | 0.681 | 0.617 | 0.511 | 0.525 | 0.502 | 0.423
4 | NCI-H522 | 1.07 | 0.749 | 0.725 | 0.899 | 1.21 | 0.872 | 0.882 | 0.884 | 0.892 | 0.782
5 | NCI-H2023 | 0.5 | 0.563 | 0.516 | 0.415 | 0.467 | 0.566 | 0.639 | 0.536 | 0.392 | 0.358
6 | NCI-H2085 | 0.541 | 0.58 | 0.446 | 0.542 | 0.631 | 0.229 | 0.229 | 0.231 | 0.243 | 0.215
7 | LXF-289 | 0.645 | 0.658 | 0.641 | 0.602 | 0.602 | 0.234 | 0.253 | 0.232 | 0.177 | 0.182
8 | NCI-H1975 | 0.356 | 0.325 | 0.387 | 0.326 | 0.373 | 0.469 | 0.313 | 0.262 | 0.26 | 0.281
